Measurements published in patent US6835371B1 (priority 1997, dated 2004).
Like-named read-outs stand apart in the source and are kept apart here.

Columns and labels:
[1] = molecular target: T1, human norepinephrine transporter (hNET) (Homo sapiens, UniProt P23975); assay: cell-based
[2] = molecular target: T1, human norepinephrine transporter (hNET); assay: biochemical; type: binding
[3] = molecular target: T2, human dopamine transporter (hDAT) (Homo sapiens, UniProt Q01959); assay: cell-based
[4] = test system: male Swiss-Webster mice; assay: Cocaine interaction study (locomotor activity); type: in vivo; settings: 20 mg/kg cocaine IP
[5] = test system: male Swiss-Webster mice; assay: animal or person; type: in vivo
[6] = molecular target: T2, human dopamine transporter (hDAT); assay: biochemical; type: binding

T2 sequence (Q01959 whole entry): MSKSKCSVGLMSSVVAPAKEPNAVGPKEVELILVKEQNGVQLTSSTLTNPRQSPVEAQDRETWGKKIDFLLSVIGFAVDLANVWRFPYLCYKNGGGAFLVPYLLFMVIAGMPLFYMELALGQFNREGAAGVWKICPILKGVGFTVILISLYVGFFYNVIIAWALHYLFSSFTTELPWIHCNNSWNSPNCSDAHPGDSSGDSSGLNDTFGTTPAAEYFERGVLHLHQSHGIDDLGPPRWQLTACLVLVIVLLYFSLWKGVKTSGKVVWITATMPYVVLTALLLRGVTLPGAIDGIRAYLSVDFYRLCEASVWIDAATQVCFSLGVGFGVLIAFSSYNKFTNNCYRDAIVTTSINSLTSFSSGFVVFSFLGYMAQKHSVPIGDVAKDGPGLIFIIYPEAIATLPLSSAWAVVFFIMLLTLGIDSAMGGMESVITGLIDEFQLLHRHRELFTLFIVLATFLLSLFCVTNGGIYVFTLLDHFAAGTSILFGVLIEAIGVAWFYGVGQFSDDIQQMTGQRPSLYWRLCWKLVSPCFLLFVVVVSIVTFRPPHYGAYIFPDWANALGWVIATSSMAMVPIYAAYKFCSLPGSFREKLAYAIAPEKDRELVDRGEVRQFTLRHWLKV
T1 sequence (P23975 whole entry): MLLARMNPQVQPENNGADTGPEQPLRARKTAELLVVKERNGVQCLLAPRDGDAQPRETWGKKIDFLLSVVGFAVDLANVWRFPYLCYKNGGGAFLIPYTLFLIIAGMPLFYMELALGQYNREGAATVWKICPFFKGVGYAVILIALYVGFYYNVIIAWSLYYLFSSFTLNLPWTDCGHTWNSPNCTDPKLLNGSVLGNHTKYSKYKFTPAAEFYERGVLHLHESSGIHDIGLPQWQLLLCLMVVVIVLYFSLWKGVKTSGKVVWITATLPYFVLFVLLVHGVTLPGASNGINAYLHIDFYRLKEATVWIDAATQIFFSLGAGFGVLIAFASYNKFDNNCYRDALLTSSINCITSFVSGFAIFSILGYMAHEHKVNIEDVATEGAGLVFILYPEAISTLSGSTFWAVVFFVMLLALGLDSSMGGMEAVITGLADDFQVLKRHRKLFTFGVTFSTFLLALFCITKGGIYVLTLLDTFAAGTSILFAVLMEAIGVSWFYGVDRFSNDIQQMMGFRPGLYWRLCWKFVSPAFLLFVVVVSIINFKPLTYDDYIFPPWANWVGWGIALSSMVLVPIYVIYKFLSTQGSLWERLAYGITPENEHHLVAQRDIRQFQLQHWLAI

Fc1ccc(C(OCCCCN2CCN(c3cccc(C(F)(F)F)c3)CC2)c2ccc(F)cc2)cc1 [Compound 31532]
Ki [1]: 310 ± 100 nM | IC50 ([1]; [3H]NE Uptake IC50): 310 nM | IC50 ([1]; read-out: [3H]NE Uptake IC50): 310 nM | Hill coefficient [2]: −0.80 ± 0.03 | Ki ([2]; [125I]RTI-55 binding Ki, NET): 222 nM | Ki ([2]; read-out: [125I]RTI-55 binding Ki, NET): 222 nM | Discrimination Ratio DAT Binding/Reuptake [3]: 11.7 | Discrimination ratio uptake/binding (DA) [3]: 11.7 | IC50 [3]: 380 nM | Ki [3]: 380 ± 130 nM | AD50 (dose attenuating cocaine-induced stimulation by 50%) ([4]; IP, 30-min period): 18.35 mg/kg | Doses with significant differences against the cocaine group (p<0.05) ([4]; planned comparisons on log10 horizontal activity counts): 100 mg/kg | ID50 (dose producing ½ maximal depressant activity) ([5]; IP, 20 min pretreatment, 0-30 min, descending portion 10 to 100 mg/kg): 112.95 mg/kg | Doses with significant differences against the vehicle group (p<0.05) ([5]; mouse, in vivo, ip): 100 mg/kg | Binding discrimination ratio NET/DAT [6]: 6.8 | Binding discrimination ratio SERT/DAT [6]: 6.8 | Hill coefficient [6]: −0.87 ± 0.05 | Ki ([6]; [125I]RTI-55 binding Ki, DAT): 32.5 nM | Ki ([6]; read-out: [125I]RTI-55 binding Ki, DAT): 32.5 nM
